As a reminder, the melting point is the temperature, or range, at which the solid turns liquid.

Results on 90 molecules are retold here after a melting point compilation (Tetko et al.; mined from patent text by program, amines drawn as free bases though some values may be those of a salt).

Where only a bound is given, the exact number is not on record here.

In the case of `Cn1ccnc1CCNC(=O)c1ccccc1NS(=O)(=O)c1cccc(C(F)(F)F)c1`, the melting point lay in the range of 127 to 129 °C. On to `CC1=C(C(=O)OC(C)C)C(c2cccc(Cl)c2)NC(=O)N1C(=O)NC(C)c1ccccc1` (stereo not given), for which the melting point lay in the range of 198 to 200 °C. As to `O=C(CCCN1CCOCC1)c1ccc2oc3ccc(C(=O)CCCN4CCOCC4)cc3c2c1`, the melting point is 98 to 99 °C. Next, `CCC1CC(=O)C(C(=O)NS(=O)(=O)c2ccc(C)cc2)C(=O)C1` (stereo not given): 86 to 87 °C; `c1ccc(-c2ncc(-c3cnc(-c4ccccc4)[nH]3)cn2)cc1`: 253 °C; `O=C1C(CSC(=O)c2ccccc2)=C(CSC(=O)c2ccccc2)C(=O)C(CSC(=O)c2ccccc2)=C1CSC(=O)c1ccccc1`: 224 to 226 °C. The molecule `CS(=O)(=O)c1ccc(-c2c(-c3ccccc3)nc3n2CCS3)cc1` gave a melting point of 177 to 179 °C. As to `CC1CCC(C)(C)C2=C1CC(O)C(C)(O)C2` (stereo not given), the melting point was 121 to 123 °C. In the case of `CCOC(=O)c1c(O)nsc1C` it was 69 °C; in that of `CC(C)C(NC(=O)C(Cc1ccccc1)NC(=O)OCc1ccccc1)C(=O)Nc1n[nH]c(=S)s1` (stereo not given), 170 to 174 °C; in that of `CCCCc1c(C(=O)OCC)[nH]c2c(Br)cccc2c1=O`, 88 °C.

On to `Cc1nnc2ncc(-c3cccc(C(F)(F)F)c3)nn12`, for which the melting point lay in the range of 265 to 268 °C. In the case of `CS(=O)(=O)Nc1ccc(Sc2ccc([N+](=O)[O-])cc2)cc1Oc1ccc(F)cc1F` it was 124 to 127 °C. In the case of `CCOC(=O)CC(NC(=O)c1ccc(F)cc1)C(=O)c1ccco1` (stereo not given) it was 95.5 to 97 °C; in that of `COc1ccc2c(c1)C=C(C(O)C(F)(F)F)CC2` (stereo not given), 66 to 68 °C.

Molecule `CC(=O)Oc1ccc(C=CC(=O)O)cc1Cl` came in with a melting point of 210 to 213 °C.

For the molecule `CCCCCC(=O)c1cn(S(=O)(=O)c2ccc(C)cc2)c2ccccc12`, the melting point was in the range of 91 to 93 °C.

In the case of `CCCCCCCCCCC/C=C/c1ccc(C=CC(=O)O)cc1`, the melting point amounted to 107 °C. As for `NCc1nnc(-c2ncn3c2[C@@H]2CCN2C(=O)c2sccc2-3)o1`, the melting point fell in the range of 233 to 235 °C. Regarding `COc1cc(Nc2nc3c(ccc4c3ncn4CCN3CCOCC3)cc2C#N)c(C)cc1Cl`, the melting point fell in the range of 246 to 248 °C. Next, `COC(=O)CC1(CC(=O)N2CCN(C(=O)CC3=C(C(=O)OC)[C@H](c4c(Cl)cccc4Cl)C(C(=O)OC)=C(C[S@](=O)c4ccccc4)N3)CC2)CCCC1`: 100 to 104 °C. Next, `Oc1cc(Br)c(Cl)c(Br)c1`: 120 to 122 °C; `Cn1c(COc2ccc(CC3SC(=O)NC3=O)cc2)nc2cc(Br)cnc21` (stereo not given): 204 to 205 °C. In the case of `CCOC(=O)NC(Cc1ccccc1)C(O)C(=O)O` (stereo not given) it was 138 to 140 °C; in that of `Cc1nnc(F)c(-c2c(F)cc(F)cc2F)c1-c1ccc(Cl)cc1`, 114 to 115 °C.

As for `Clc1ccc(C=Cc2nc3c(s2)NCCCC3)cc1`, the melting point fell in the range of 188 to 189 °C.

Consider `N#CCCN1CCC(c2[nH]cc3cc(F)ccc23)CC1`, for which the melting point lay in the range of 100 to 101 °C.

Take `CC(=O)c1c(C)sc(C)c1CC(N)=O`: the melting point lay in the range of 123 to 125 °C. Molecule `CCOC(=O)C(C)(C)c1ccc(C(O)CCCN2CCC(C(O)(c3ccccc3)c3ccccc3)CC2)cc1` (stereo not given) yielded a melting point of 141 to 142 °C. `Oc1cccc(C(O)CNCCCCn2cnc3ccccc32)c1` (stereo not given) registered a melting point of 58 to 62 °C. Next, `CC1(C(=O)NCC(=O)O)CC1(Cl)Cl` (stereo not given): 139 to 140 °C. Next, `CCNC(=O)N1N=C(c2ccc(N)cc2)c2cc(Cl)ccc2CC1C` (stereo not given): 165 to 167 °C; `CC1(CC2CCCC2)Cc2cc(O)c(Cl)c(Cl)c2C1=O` (stereo not given): 188 to 190 °C. `O=C(NCc1ccc(F)c(F)c1)c1ccnc(N2CCN(Cc3ccccn3)C2=O)c1`: the melting point lay in the range of 143 to 145 °C. In the case of `CCN1CCC(C2CCN(C(=O)OCc3ccccc3)CC2)CC1` it was 93 to 96 °C. `CS(=O)(=O)c1ccc(-c2cnn(CC(F)(F)F)c(=O)c2-c2ccc(Cl)c(F)c2)cc1` gave a melting point of 174 to 175 °C.

The molecule `COc1cc(C2CCN(CC(O)CF)CC2)ccc1Nc1ncc2ccc(-c3ccccc3OC)n2n1` (stereo not given) registered a melting point of 73 to 79 °C.

Molecule `Cc1cc(C(O)=S)cc(N)c1Cc1ccccc1` had a melting point of 153 to 154 °C. Next, `COc1cccc2c(Oc3cc(-n4c(=O)cc(C(F)(F)F)n(C)c4=O)c(F)cc3C#N)cccc12`: 109 °C.

In turn, `CC(C=Cc1cccc(-c2cc3c(cc2C)C(C)(C)CCC3(C)C)c1)=CC(=O)O` displayed a melting point of 99 to 101 °C. Next, `CCOC(=O)Nc1cc(OCC)c(Br)cc1F`: 92.5 to 95 °C; `O=c1cc(O)cnn1Cc1ccccc1`: 48 to 55 °C. Consider `CC(C)(C)NC(=O)C1CCN(C(=O)CCl)CC1`, for which the melting point was in the range of 140 to 142 °C. Consider `NC(=O)CNC(=O)c1cccc(-c2cccc3c(F)c(Cc4cccc(C(F)(F)F)c4)sc23)c1`, for which the melting point is 127 to 128 °C. In the case of `CCCCCCCC[C@H](N[C@@H](C)C(=O)O)C(=O)OCC` it was 127 to 128 °C. In turn, `Cc1cc(C)c2nc(C3CC3)n(-c3ccc(C(C(=O)O)C4CCCC4)cc3)c2n1` (stereo not given) showed a melting point of 180 °C. Next, `CC12CC(=O)C3C(CCC4CC(O)CCC43C)C1CCC2C#N` (stereo not given): 190 to 192 °C.

For the molecule `COC(=O)c1c2ccccc2nc2ccc(Cl)cc12`, the melting point stood at 130 °C. `O=C1c2ccc(OC3CCCCC3)cc2CCC1CN1CCC(O)(c2ccccc2)CC1` (stereo not given) displayed a melting point of 175 to 177 °C. Molecule `CC1(C)OC(c2ccc(S(C)(=O)=O)cc2)=C(c2cccnc2)C1=O` yielded a melting point of 164 to 166 °C. Regarding `CCN(CC)CCC(=O)C1Nc2cnccc2N(C)n2cccc21` (stereo not given), the melting point lay within 170 to 172 °C. `COc1ccc(-n2c(-c3cc(-c4ccc(S(C)(=O)=O)cc4)c(N4CCOCC4)s3)nc3ccccc3c2=O)cc1` displayed a melting point of 240 to 243 °C. Molecule `COc1ccc(Nc2nc(-c3ccc4scnc4c3)cn3ccnc23)cc1OC` showed a melting point of 179 to 181 °C. `O=C(O)Cc1c(Cl)nc(-c2ccc(O)cc2)n1Cc1ccccc1`: the melting point was 140 to 145 °C. Next, `CCC(CC)(CC(=O)Nc1cccc(OCc2ccc3ccc(C)cc3n2)c1)C(=O)O`: 75 to 76 °C. The molecule `O=Cc1c(Cl)nc2ccccc2c1-c1ccc(F)cc1` came in with a melting point of 168 to 170 °C. The molecule `CCc1nc2cc(/C=C/C(=O)NO)ccc2c(=O)n1CCc1ccc(OC)cc1` had a melting point of 215 to 217 °C. For `CC(C)c1cccc(C(C)C)c1NC(=O)NCCN1CCN(CCSc2nc3ccccc3[nH]2)CC1`, the melting point was in the range of 120 to 122 °C.

As to `N#CCC1CCN(c2ccc(N3C[C@H](CO)OC3=O)cc2)CC1`, the melting point is 110 to 112 °C. Next, `Cc1ccnc(P(=O)(O)O)c1`: 273 °C; `CCc1ccccc1NC=C1C(=O)N(c2ccc(NC(C)=O)cc2)N=C1C`: 230 °C. For `CCN1CCC(NC(=O)Nc2ccccc2CCc2cc(C(C)(C)C)c(O)c(C(C)(C)C)c2)CC1`, the melting point lay within 182 to 184 °C. Regarding `O=C(Nc1cccnc1)N1CCN(c2nccc(-c3cccc(F)c3F)n2)CC1`, the melting point fell in the range of 232 to 233 °C. In the case of `Clc1ncc(Cl)c(-c2ccc(Cl)c(Cl)c2)n1` it was 125 to 126 °C; in that of `O=[N+]([O-])c1cc(-c2nsc(C(F)(F)F)c2Cl)c(Cl)cc1Cl`, 104 to 106 °C; in that of `N#Cc1cc2c3ccccc3n(Cc3ccccc3)c2s1`, 130 to 132 °C. In the case of `O=c1[nH]c(N2CCCC(CO)C2)cc2ccccc12` (stereo not given) it was 143 to 144 °C; in that of `CC12CCC(C1)C1(C)Oc3ccc(C(=O)Oc4ccc(C(=O)OCc5ccccc5)cc4)cc3C21C` (stereo not given), 131 to 133 °C; in that of `CC(O)C1CCC2C3CC=C4CC(N)CCC4(C)C3CCC12C` (stereo not given), 160 °C. Next, `CC(=O)N(C)c1ccccc1CS(=O)c1nccn1-c1ccccn1` (stereo not given): 188 to 189 °C; `O=C(c1c[nH]c2cc([N+](=O)[O-])ccc12)C(F)(F)F`: 263 to 265 °C; `COC(=O)C1=C(C)NC(C)=C(C#N)C1c1cccc(N)c1` (stereo not given): 234 to 235 °C. Molecule `CCOC(=O)C(=O)CC(=O)CC(=O)c1ccc(C)cc1` yielded a melting point of 76 °C.

`CCOC(=O)C1CCN(c2cc(C)nc3c2c(C)cn3-c2c(C)cc(Cl)cc2C)CC1`: the melting point was 140 to 142 °C. Next, `Nc1ccc(N2CCC(N3CCOCC3)CC2)c(C(F)(F)F)c1`: 118 to 120 °C; `COc1cc(OC)cc(C(=O)N2CCc3cc(O)ccc3C2=O)c1`: 178 to 179 °C; `CCCCCCCCCCCCCCCCNc1ccc(C(=O)O)cc1`: 104 to 107 °C.

Turning to `CCCC[C@H]1COC(c2ccc(OCCCCCCCc3cc(C)no3)cc2)=N1`, the melting point is 122 to 123 °C. Next, `Cc1nccn1-c1ccc([N+](=O)[O-])cc1F`: 106 to 107 °C; `Cc1nc(CC#N)c2c(OCc3ccccc3)cccn12`: 118 to 119 °C; `O=c1cc[nH]c2cn[nH]c12`: over 320 °C. In the case of `CC(C)N(C=Nc1ncc(Oc2ccc(Cl)cc2)c(Cl)n1)C(C)C` it was 135 to 136 °C; in that of `OC(c1ccc(Cl)cc1)c1ccccc1Cl` (stereo not given), 68 to 70 °C; in that of `COC(=O)[C@@H]1CCCN1C(=O)CCC(=O)c1ccc(Br)cc1`, 78 to 82 °C.

In turn, `CNC(=O)Nc1ccc(C(=O)O)cc1` showed a melting point of over 300 °C. In the case of `COc1ccc2ccc(N3C(=O)c4ccccc4C3OCC(=O)NCCC(C)C)nc2n1` (stereo not given) it was 136 °C; in that of `ClCc1ccc(OCc2ccccc2)cc1`, 74 to 76 °C. In the case of `CC1(C)CCC(C)(C)c2cc(-c3cccc(C#CC(=O)O)c3)ccc21` it was 164 to 165 °C; in that of `O=C(N[C@H](Cc1ccc(C(F)(F)F)cc1)[C@@H](O)c1ccc(F)cc1)c1cccc2cc3ccccc3cc12` (racemic), 227 to 228 °C. In the case of `COc1cc2c3ccc(OC)c(OC)c3n(Cc3ccc(C#N)cc3)c2cc1OC` it was 147 to 148 °C.
